Patent US20070254856A1, “Use of acetylsalicylic acid (ASA) in the application of a membrane lung” (priority 2006, published 2007)

Key:
[1] = test system: patient treated with the membrane lung NovaLung iLA; assay: application of the membrane lung NovaLung iLA on a patient receiving ASA; scanning electron microscope image of the gas exchange membrane; format: in vivo, human
Method: A patient who required treatment with the NovaLung iLA was administered 50 mg of ASA daily for 1 week before application of the membrane lung. This administration of 50 mg of ASA daily was initially maintained during application of the membrane lung, but the medicament was discontinued one week before removal of the membrane lung. […] FIG. 1 is a scanning electron microscope image of the gas exchange membrane from the membrane lung which was removed and dismantled after a period of use of 14 days on the patient thus treated and medicated.

platelet aggregation = platelet aggregation in the patient receiving ASA with NovaLung iLA treatment, standard clinical methods; format: in vivo, human
Method: The membrane lung NovaLung iLA itself was used in the manner described by Fischer el al., loc cit. The platelet aggregation was determined using standard clinical methods.

Compound: CC(=O)Oc1ccccc1C(=O)O [ASA, acetylsalicylic acid]
- deposition of blood constituents on the gas exchange membrane (scanning electron microscope image, FIG. 1) ([1]; 50 mg ASA daily oral, membrane lung removed after period of use of 14 days on the patient): no deposition of blood constituents
- gas exchange performance and flow resistance of the membrane lung to the blood stream ([1]; 50 mg ASA daily, membrane lung left on the patient for 2 weeks): without an appreciable reduction in gas exchange performance or an appreciable increase in the flow resistance
- platelet aggregation (FIG. 3) (platelet aggregation; 50 mg ASA daily, during the second week of ASA administration): remained at its reduced value
- platelet aggregation (FIG. 3) (platelet aggregation; 50 mg ASA daily, within the first week of ASA administration, when the membrane lung was connected): below 20%
- platelet aggregation (FIG. 3) (platelet aggregation; two weeks after start of treatment with the membrane lung, 1 week after discontinuation of ASA): below 30%
